Measurements published in PubChem BioAssay (NCI).
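GI50 is the concentration that inhibits growth by half. TGI is the concentration that stops growth completely.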

Assays:
Test in all cases: DTP human tumour cell line panel, 384-well format
786-0 renal = system: 786-0 renal
A498 renal = system: A498 renal
A549 NSCLC = system: A549 NSCLC
ACHN renal = system: ACHN renal
BT-549 breast = system: BT-549 breast
CAKI-1 renal = system: CAKI-1 renal
CCRF-CEM leukemia = system: CCRF-CEM leukemia
COLO 205 colon = system: COLO 205 colon
DU-145 prostate = system: DU-145 prostate
EKVX NSCLC = system: EKVX NSCLC
HCC-2998 colon = system: HCC-2998 colon
HCT-116 colon = system: HCT-116 colon
HCT-15 colon = system: HCT-15 colon
HL-60(TB) leukemia = system: HL-60(TB) leukemia
HOP-62 NSCLC = system: HOP-62 NSCLC
HOP-92 NSCLC = system: HOP-92 NSCLC
HS 578T breast = system: HS 578T breast
HT29 colon = system: HT29 colon
IGROV1 ovarian = system: IGROV1 ovarian
K-562 leukemia = system: K-562 leukemia
KM12 colon = system: KM12 colon
LOX IMVI melanoma = system: LOX IMVI melanoma
M14 melanoma = system: M14 melanoma
MALME-3M melanoma = system: MALME-3M melanoma
MCF7 breast = system: MCF7 breast
MDA-MB-231 breast = system: MDA-MB-231 breast
MDA-MB-435 melanoma = system: MDA-MB-435 melanoma
MDA-MB-468 breast = system: MDA-MB-468 breast
MOLT-4 leukemia = system: MOLT-4 leukemia
NCI-H226 lung = system: NCI-H226 lung
NCI-H23 lung = system: NCI-H23 lung
NCI-H322M lung = system: NCI-H322M lung
NCI-H460 NSCLC = system: NCI-H460 NSCLC
NCI-H522 lung = system: NCI-H522 lung
NCI/ADR-RES ovarian = system: NCI/ADR-RES ovarian
OVCAR-3 ovarian = system: OVCAR-3 ovarian
OVCAR-4 ovarian = system: OVCAR-4 ovarian
OVCAR-5 ovarian = system: OVCAR-5 ovarian
PC-3 prostate = system: PC-3 prostate
RPMI-8226 leukemia = system: RPMI-8226 leukemia
RXF 393 renal = system: RXF 393 renal
SF-268 CNS = system: SF-268 CNS
SF-295 CNS = system: SF-295 CNS
SF-539 CNS = system: SF-539 CNS
SK-MEL-2 melanoma = system: SK-MEL-2 melanoma
SK-MEL-28 melanoma = system: SK-MEL-28 melanoma
SK-MEL-5 melanoma = system: SK-MEL-5 melanoma
SK-OV-3 ovarian = system: SK-OV-3 ovarian
SN12C renal = system: SN12C renal
SNB-19 CNS = system: SNB-19 CNS
SNB-75 CNS = system: SNB-75 CNS
SR leukemia = system: SR leukemia
SW-620 colon = system: SW-620 colon
T-47D breast = system: T-47D breast
TK-10 renal = system: TK-10 renal
U251 glioblastoma = system: U251 glioblastoma
UACC-257 melanoma = system: UACC-257 melanoma
UACC-62 melanoma = system: UACC-62 melanoma
UO-31 renal = system: UO-31 renal

SMILES: O=C(Nc1ccccc1/C=C/c1n[nH]c2ccccc12)c1ccccc1
- GI50 ([…]-0 renal): 1820 nM
- TGI (786-0 renal): 3310 nM
- GI50 (A498 renal): 1840 nM
- TGI (A498 renal): 3310 nM
- GI50 (A549 NSCLC): 1740 nM
- TGI (A549 NSCLC): 3390 nM
- GI50 (ACHN renal): 2630 nM
- TGI (ACHN renal): 8820 nM
- GI50 (BT-549 breast): 1950 nM
- TGI (BT-549 breast): 3460 nM
- GI50 (CAKI-1 renal): 2460 nM
- TGI (CAKI-1 renal): 9910 nM
- GI50 (CCRF-CEM leukemia): 1580 nM
- TGI (CCRF-CEM leukemia): 2960 nM
- GI50 (COLO 205 colon): 1300 nM
- TGI (COLO 205 colon): 2590 nM
- GI50 (DU-145 prostate): 1470 nM
- TGI (DU-145 prostate): 3040 nM
- GI50 (EKVX NSCLC): 1430 nM
- TGI (EKVX NSCLC): 3940 nM
- GI50 (HCC-2998 colon): 1280 nM
- TGI (HCC-2998 colon): 2580 nM
- GI50 (HCT-116 colon): 1490 nM
- TGI (HCT-116 colon): 2990 nM
- GI50 (HCT-15 colon): 1460 nM
- TGI (HCT-15 colon): 2820 nM
- GI50 (HL-60(TB) leukemia): 538 nM
- TGI (HL-60(TB) leukemia): 1880 nM
- GI50 (HOP-62 NSCLC): 1550 nM
- TGI (HOP-62 NSCLC): 2950 nM
- GI50 (HOP-92 NSCLC): 1520 nM
- TGI (HOP-92 NSCLC): 5050 nM
- GI50 (HS 578T breast): 1650 nM
- TGI (HS 578T breast): 3110 nM
- GI50 (HT29 colon): 1490 nM
- TGI (HT29 colon): 2850 nM
- GI50 (IGROV1 ovarian): 5770 nM
- TGI (IGROV1 ovarian): 19600 nM
- GI50 (K-562 leukemia): 1370 nM
- TGI (K-562 leukemia): 2770 nM
- GI50 (KM12 colon): 40.8 nM
- TGI (KM12 colon): 1010 nM
- GI50 (LOX IMVI melanoma): 1900 nM
- TGI (LOX IMVI melanoma): 3450 nM
- GI50 (M14 melanoma): 3420 nM
- TGI (M14 melanoma): 14300 nM
- GI50 (MALME-3M melanoma): 1290 nM
- TGI (MALME-3M melanoma): 2680 nM
- GI50 (MCF7 breast): 514 nM
- TGI (MCF7 breast): 11400 nM
- GI50 (MDA-MB-231 breast): 1480 nM
- TGI (MDA-MB-231 breast): 2990 nM
- GI50 (MDA-MB-435 melanoma): 1530 nM
- TGI (MDA-MB-435 melanoma): 4460 nM
- GI50 (MDA-MB-468 breast): 1640 nM
- TGI (MDA-MB-468 breast): 3650 nM
- GI50 (MOLT-4 leukemia): 1650 nM
- TGI (MOLT-4 leukemia): 3350 nM
- GI50 (NCI-H226 lung): 1480 nM
- TGI (NCI-H226 lung): 8440 nM
- GI50 (NCI-H23 lung): 1160 nM
- TGI (NCI-H23 lung): 12400 nM
- GI50 (NCI-H322M lung): 1840 nM
- TGI (NCI-H322M lung): 3970 nM
- GI50 (NCI-H460 NSCLC): 1480 nM
- TGI (NCI-H460 NSCLC): 2900 nM
- GI50 (NCI-H522 lung): 2360 nM
- TGI (NCI-H522 lung): 8590 nM
- GI50 (NCI/ADR-RES ovarian): 1990 nM
- TGI (NCI/ADR-RES ovarian): 4430 nM
- GI50 (OVCAR-3 ovarian): 1390 nM
- TGI (OVCAR-3 ovarian): 2930 nM
- GI50 (OVCAR-4 ovarian): 4220 nM
- TGI (OVCAR-4 ovarian): 17200 nM
- GI50 (OVCAR-5 ovarian): 1400 nM
- TGI (OVCAR-5 ovarian): 3330 nM
- GI50 (PC-3 prostate): 1450 nM
- TGI (PC-3 prostate): 2790 nM
- GI50 (RPMI-8226 leukemia): 1560 nM
- TGI (RPMI-8226 leukemia): 2970 nM
- GI50 (RXF 393 renal): 2930 nM
- TGI (RXF 393 renal): 8110 nM
- GI50 (SF-268 CNS): 1710 nM
- TGI (SF-268 CNS): 3260 nM
- GI50 (SF-295 CNS): 1630 nM
- TGI (SF-295 CNS): 3000 nM
- GI50 (SF-539 CNS): 2040 nM
- TGI (SF-539 CNS): 4760 nM
- GI50 (SK-MEL-2 melanoma): 3880 nM
- TGI (SK-MEL-2 melanoma): 5810 nM
- GI50 (SK-MEL-28 melanoma): 2370 nM
- TGI (SK-MEL-28 melanoma): 8160 nM
- GI50 (SK-MEL-5 melanoma): 1560 nM
- TGI (SK-MEL-5 melanoma): 6100 nM
- GI50 (SK-OV-3 ovarian): 2870 nM
- TGI (SK-OV-3 ovarian): 11600 nM
- GI50 (SN12C renal): 1530 nM
- TGI (SN12C renal): 2900 nM
- GI50 (SNB-19 CNS): 1980 nM
- TGI (SNB-19 CNS): 4380 nM
- GI50 (SNB-75 CNS): 2160 nM
- TGI (SNB-75 CNS): 4810 nM
- GI50 (SR leukemia): 1230 nM
- TGI (SR leukemia): 2510 nM
- GI50 (SW-620 colon): 1870 nM
- TGI (SW-620 colon): 5300 nM
- GI50 (T-47D breast): 1900 nM
- TGI (T-47D breast): 4050 nM
- GI50 (TK-10 renal): 1500 nM
- TGI (TK-10 renal): 3140 nM
- GI50 (U251 glioblastoma): 1550 nM
- TGI (U251 glioblastoma): 2910 nM
- GI50 (UACC-257 melanoma): 1940 nM
- TGI (UACC-257 melanoma): 4300 nM
- GI50 (UACC-62 melanoma): 1890 nM
- TGI (UACC-62 melanoma): 3940 nM
- GI50 (UO-31 renal): 10400 nM
- TGI (UO-31 renal): 22300 nM
